The target in assay [1] is T1, fucosyltransferase VI (FTVI) (Homo sapiens, UniProt P51993).
T1 construct: purchased R&D systems
T1 sequence (P51993 35-359 limits assumed): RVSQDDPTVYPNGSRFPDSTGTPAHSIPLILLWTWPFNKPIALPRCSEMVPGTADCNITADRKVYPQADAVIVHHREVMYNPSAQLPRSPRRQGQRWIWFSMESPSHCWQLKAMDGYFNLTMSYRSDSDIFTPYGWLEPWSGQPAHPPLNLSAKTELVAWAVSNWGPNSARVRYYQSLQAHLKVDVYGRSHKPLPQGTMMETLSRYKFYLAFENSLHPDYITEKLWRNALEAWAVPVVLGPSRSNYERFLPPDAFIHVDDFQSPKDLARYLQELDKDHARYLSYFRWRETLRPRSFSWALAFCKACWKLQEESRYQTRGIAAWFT
Put plainly: FTVI exofucosylation of RPMI-8402 cells, sLe^x and Le^x by flow cytometry. The format is cell-based. Here is the method: A titration of GDP-Fucose was carried out to determine the maximum mean fluorescent intensity (MFI) of sLe^X and Le^X via flow cytometry for downstream inhibition experiments. Generally, 1×10^6 cells were used in each FTVI exofucosylation reaction and all reactions were carried out in triplicate. Cells were then stained with either Alexa-Fluor 488 Mouse Anti-Human CD15s (BD Biosciences), or APC anti-human CD15 (SSEA-1) Antibody (BioLegend). Cells were then acquired on a Canto II (BD Biosciences) flow cytometer and analylized using Flowjo software (Treestar). FTVI was purchased from R&D systems.
A Canto II (BD Biosciences) flow cytometer was utilized for flow cytometry and the data acquired was analyzed using FlowJo Software (Treestar). Cells were stained using antibodies specific to sLe^X (Alexa-Fluor 488 Mouse Anti-Human CD15s (BD Biosciences)), or Le^X (APC anti-human CD15 (SSEA-1) Antibody (BioLegend)).
Cells of the RPMI-8402 cell line and MSC cell line were treated with either 0.3 ug of fucosyltransferase VI (FTVI), 2.7 ug of fucosyltransferase VII (FTVII), 1.0 ug fucosyltransferase IX (FTIX) or buffer-only at 37° C. for 60 minutes. All reactions contained at 1×10^6 cells/30 ul in HBSS with 10 mM Hepes, 0.1% Human Serum Albumin, and 1.0 mM GDP fucose (GDP-Fuc) (Carbosynth) and the appropriate fucosytransferase. Then, mimetic 1 was added to each of the treatment groups in molar equivalents with respect to GDP-Fuc with each of the fucosytransferases. The treatment groups were as follows: 1:1 GDP-Fuc to mimetic 1 (i.e., 1.0 mM GDP-Fuc and 1.0 mM mimetic), 1:2 GDP-Fuc to mimetic 1 (i.e., 1.0 mM GDP-Fuc and 2.0 mM mimetic), or preincubated in presence of FT with a 2.0 mM solution of the mimetic 1 for 45 minutes followed by addition of a 1.0 mM solution of GDP-Fuc for 1 hour. Concentrations of the various FTs were utilized that would maximize the MFI to allow the detection of the efficacy of mimetic 1 to inhibit the various enzymes.
Exofucosylation is a technique whereby a pertinent FT together with GDP-Fuc is placed in a cell suspension to stereoselectively install fucose on pertinent acceptor cell surface glycan(s). For the case of α-1,3-FTs, this approach provides the ability to pinpoint the effect(s) of mimetic addition on creation of fucosylated glycans Le^x and sLe^x, while keeping the rest of the cell's biological functions and its viability intact. Specifically, this study focused on three α-1,3-FTs that can create sLe^x and Le^x determinants: FTVII, FTIX, and FTVI. […]
Mimetic 1 (FIG. 1) was tested as an inhibitor of FT-mediated exofucosylation on these cells and the extent of fucosylation was monitored using antibodies that detect the creation of the relevant fucosylated epitopes, i.e., sLe^x or Le^x. […]

The next assay has as its system E-selectin bearing HUVEC. The assay is described as follows: Parallel plate flow chamber: exofucosylated RPMI-8402 cells on TNFα-stimulated HUVEC under shear. Conditions: for number of interacting RPMI-8402 cells on HUVEC: shear 0.5-8 dynes/cm^2. It is filed as cell-based, human. Here is the method: Human umbilical vein endothelial cells (HUVEC, Lonza) were cultured in Endothelial Cell Growth Media (R&D Systems) in Bioflux microfluidic chambers that had been previously coated with 250 ug/ml fibronectin (BD Biosciences). Then 4 hours prior to rolling assay, cells were activated with 40 ng/ml TNFα (R&D Systems). Different cell subsets, based on exofucoslylation/mimetic conditions, were then infused into the chamber at a concentration of 2×10^6/ml and shear stress was applied from 0.5-8 dynes/cm^2. Then RPMI-8402 subsets were loaded into chambers containing monolayers of E-selectin bearing HUVECs with an initial shear rate of 0.5 dyne/cm^2, with stepwise increments in the shear rate up to 8 dynes/cm^2. The number of tethering/interacting RPMI-8402 cells on HUVEC were quantified at each shear rate and averaged across three different fields of view.
As sLe^x is the primary ligand for E-selectin which is induced on endothelial cells by inflammatory cytokine, e.g., TNFα the biological impacts of mimetic 1's inhibition of sLe^x binding to E-selectin under hemodynamic shear was evaluated. To this end, RPMI-8402 cells were left untreated or exofucosylated with 1.0 mM GDP-Fuc, 1.0 mM GDP-Fuc and 2.0 mM mimetic 1 or preincubated with FTVI and 2.0 mM mimetic 1 for 45 min followed by addition of 1.0 mM GDP-Fuc for 1 h and the presence of sLe^x determined by flow cytometry (FIGS. 6A and 6B). The RPMI-8402 cells treated as outlined above were then loaded in a parallel plate flow chamber seeded with monolayers of human umbilical vein endothelial cells (HUVEC) that had been stimulated with TNFα (FIG. 6C). The RPMI cells were introduced under defined fluid shear conditions to determine inhibition.

The mark [2] stands for this setting: RPMI-8402 cells, 1.0 mM GDP-Fuc with 1.0 mM or 2.0 mM mimetic 1.

Data on 1 compound can be found in US12486298B2, “Fucosyltransferase specific inhibition using fucose mimetics” (THE FLORIDA INTERNATIONAL UNIVERSITY BOARD OF TRUSTEES, priority 2020, dated 2025).

On to `CC1OC2Oc3ccc(CC(=O)O)cc3SC2C(O)C1O` (stereo not shown) [mimetic 1], for which, in assay [1] (setting [2]), the “inhibition of FTVI production of Le^x” value is “clearly inhibited” and the “inhibition of FTVI production of sLe^x” value is given as “markedly diminished”. Further, the “inhibition of FTVI-mediated exofucosylation after pre-incubation” value in assay [1] (pre-incubation with 2.0 mM mimetic 1 prior to addition of GDP-Fuc) is on record as “inhibited more completely”. In addition, in assay [1] (titration of mimetic 1, 1.0 mM GDP-Fuc, RPMI-8402 cells, bell-shaped curve), the “concentration of highest inhibition against FTVI” value is listed as 2.0 mM. Further, the “number of interacting RPMI-8402 cells on HUVEC” value in the assay on E-selectin bearing HUVEC (exofucosylated with FTVI, 1.0 mM GDP-Fuc and 2.0 mM mimetic 1) is on record as “reduced the number of interacting cells”. Besides, in the assay on E-selectin bearing HUVEC (physiologically relevant shear conditions), the “ability of cells to adhere to HUVEC” value is recorded as “reduced the ability of cells to adhere to HUVEC”. Moreover, the “number of interacting RPMI-8402 cells on HUVEC” value in the assay with E-selectin bearing HUVEC (preincubation with FTVI and 2.0 mM mimetic 1 for 45 min, then 1.0 mM GDP-Fuc for 1 h) is listed as “reduced the number of interacting cells”.
